Experiments:
[1] = system: OPM2-FcRH5 tumors; assay: Inhibition of in vivo tumor growth, OPM2-FcRH5 xenografts, hu10A8-MC-vc-PAB-MMAE alone and in combination with Velcade (Example 8, Table 14); set-up: species or system CB17 ICR SCID mice
Excerpt: (§1) Specifically, the ability of the antibody and Velcade® to regress tumors in OPM2 cells (Multiple myeloma cell line) stably transfected with human FcRH5 was examined. After transfection of linearized pRK.CMV.PD.nbe.FcRH5 into OPM2 cells and puromycin (Calbiochem, San Diego, Calif.) selection, surviving cells were separated for FcRH5 expressing cells with biotin (Pierce Biotechnology, Rockford, Il) labeled anti-FcRH5.7D11 and MACS anti-Biotin microbeads on an MACS LS column (Miltenyi Biotec, Auburn, Calif.).
For analysis of efficacy of hu anti-FcRH5 10A8 conjugated with MC-vc-PAB-MMAE alone and in combination with Velcade®, female CB17 ICR SCID mice (6-8 weeks of age from Charles Rivers Laboratories; Hollister, Calif.) were inoculated subcutaneously with 2×10^7 OPM2-FcRH5 cells via injection into the flanks of CB17 ICR SCID mice and the xenograft tumors were allowed to grow to an average of 331 mm^3. Day 0 refers to the day the tumors were 172-511 mm^3 and when the first/or only dose of treatment was administered, unless indicated specifically below. Tumor volume was calculated based on two dimensions, measured using calipers, and was expressed in mm3 according to the formula: V=0.5a×b^2, where a and b are the long and the short diameters of the tumor, respectively. Data collected from each experimental group were expressed as mean±SE. Mice were randomized into nine groups of 9 mice each and dosed. Group 1 received a single intravenous (IV) injection of histidine buffer on Day 0 plus IV injections of 0.9% sodium chloride (saline) twice weekly for two weeks on Days 0, 3, 7, and 10 as a vehicle control. […] Group 3 received IV injections of 1 mg/kg Velcade® twice weekly for two weeks on Days 0, 3, 7, and 10. Group 4-5 received a single IV injection of 4 or 10 mg/kg thio hu anti-FcRH5(10A8)-HC-MC-vc-PAB-MMAE, CNJ 1465, respectively, on Day 0. […] Tumors were measured twice a week throughout the experiment. Body weights of mice were measured twice a week for the first three weeks. […] All animal protocols were approved by an Institutional Animal Care and Use Committee (IACUC).

[2] = system: OPM2-FcRH5 tumors (OPM2 multiple myeloma cells stably transfected with human FcRH5); assay: OPM2-FcRH5 xenograft: Hu anti-FcRH5 10A8-SPDB-DM4 alone and in combination with Velcade; format: in vivo, CB17 ICR SCID mice
Excerpt: Specifically, the ability of the antibody and Velcade® to regress tumors in OPM2 cells (Multiple myeloma cell line) stably transfected with human FcRH5 was examined. After transfection of linearized […]5 into OPM2 cells and puromycin (Calbiochem, San Diego, Calif.) selection, surviving cells were separated for FcRH5 expressing cells with biotin (Pierce Biotechnology, Rockford, Il) labeled anti-FcRH5.7D11 and MACS anti-Biotin microbeads on an MACS LS column (Miltenyi Biotec, Auburn, Calif.). […] Data collected from each experimental group were expressed as mean±SE. Mice were randomized into six groups of 9 mice each and dosed. […] Group 2 received a single IV injection of histidine buffer on Day 0 plus IV injections of 0.9% sodium chloride (saline) twice weekly for two weeks on Days 0, 3, 7, and 10 as a vehicle control. […] Tumors were measured twice a week throughout the experiment. Body weights of mice were measured twice a week for the first three weeks. […] All animal protocols were approved by an Institutional Animal Care and Use Committee (IACUC).

[3] = system: OPM2-FcRH5 tumors (OPM2 multiple myeloma cells stably transfected with human FcRH5); assay: OPM2-FcRH5 xenograft: Hu anti-FcRH5 10A8-MC-vc-PAB-MMAE in combination with Revlimid and Revlimid plus Dexamethasone; format: in vivo, CB17 ICR SCID mice; conditions: for CR (mice with Complete Remission: tumor volume dropped to 0 mm^3) / PR (mice with Partial Regression: tumor volume dropped below 50% of day 0) / TI (number of observable tumors at end of study): 38 day time course, ADC 6 mg/kg single IV day 0, Revlimid 50 mg/kg IP daily, Dexamethasone 3 mg/kg PO; for percent body weight change (FIG. 44): first 17 days
Excerpt: as §1, with “antibody in combination with Revlimid®” for “antibody”, “Revlimid® plus Dexamethasone” for “Velcade®”
For analysis of efficacy of Hu anti-FcRH5 10A8 conjugated to -MC-vc-PAB-MMAE in combination with Revlimid® and Revlimid® plus Dexamethasone, female CB17 ICR SCID mice (6-8 weeks of age from Charles Rivers Laboratories; Hollister, Calif.) were inoculated subcutaneously with 2×10^7 OPM2-FcRH5 cells via injection into the flanks of CB17 ICR SCID mice and the xenograft tumors were allowed to grow to an average of 446 mm^3. Day 0 refers to the day the tumors were 263-630 mm^3 and when the first/or only dose of treatment was administered, unless indicated specifically below. Tumor volume was calculated based on two dimensions, measured using calipers, and was expressed in mm3 according to the formula: V=0.5a×b^2, where a and b are the long and the short diameters of the tumor, respectively. Data collected from each experimental group were expressed as mean+SE. Mice were randomized into nine groups of 8 mice each and dosed. Group 1 received daily intraperitoneal (IP) injections of a mixture of DMSO and MCT buffer on Days 0-13 as a vehicle control. […] Group 4 received daily IP injections of 50 mg/kg Revlimid® on Days 0-13. Group 5 received daily oral (PO) dosing of 3 mg/kg Dexamethasone for four days followed by three days off for two cycles on Days 0-3 and 7-10. Group 6 received daily IP injections of 50 mg/kg Revlimid® on Days 0-13 plus daily PO dosing of 3 mg/kg Dexamethasone for four days followed by three days off for two cycles on Days 0-3 and 7-10. […] Tumors were measured twice a week throughout the experiment. Body weights of mice were measured twice a week throughout the experiment. If mice experienced a body weight loss of greater than 15% compared to their body weight on Day 0, mice were weighed daily until weight regained or until body weight loss reached greater than 20%. […] All animal protocols were approved by an Institutional Animal Care and Use Committee (IACUC).

[4] = system: cynomolgus FcRH5; assay: Cyno cross-reactivity by FACS on stably transfected cells (SVT2 cells expressing cynoFcRH5); format: binding, cynomolgus monkey; set-up: key to Cyno X-reactivity (FACS) on stable transfected cells: X*: *Very slight at saturating concentration
Sequence of cynomolgus FcRH5 (as listed by the source): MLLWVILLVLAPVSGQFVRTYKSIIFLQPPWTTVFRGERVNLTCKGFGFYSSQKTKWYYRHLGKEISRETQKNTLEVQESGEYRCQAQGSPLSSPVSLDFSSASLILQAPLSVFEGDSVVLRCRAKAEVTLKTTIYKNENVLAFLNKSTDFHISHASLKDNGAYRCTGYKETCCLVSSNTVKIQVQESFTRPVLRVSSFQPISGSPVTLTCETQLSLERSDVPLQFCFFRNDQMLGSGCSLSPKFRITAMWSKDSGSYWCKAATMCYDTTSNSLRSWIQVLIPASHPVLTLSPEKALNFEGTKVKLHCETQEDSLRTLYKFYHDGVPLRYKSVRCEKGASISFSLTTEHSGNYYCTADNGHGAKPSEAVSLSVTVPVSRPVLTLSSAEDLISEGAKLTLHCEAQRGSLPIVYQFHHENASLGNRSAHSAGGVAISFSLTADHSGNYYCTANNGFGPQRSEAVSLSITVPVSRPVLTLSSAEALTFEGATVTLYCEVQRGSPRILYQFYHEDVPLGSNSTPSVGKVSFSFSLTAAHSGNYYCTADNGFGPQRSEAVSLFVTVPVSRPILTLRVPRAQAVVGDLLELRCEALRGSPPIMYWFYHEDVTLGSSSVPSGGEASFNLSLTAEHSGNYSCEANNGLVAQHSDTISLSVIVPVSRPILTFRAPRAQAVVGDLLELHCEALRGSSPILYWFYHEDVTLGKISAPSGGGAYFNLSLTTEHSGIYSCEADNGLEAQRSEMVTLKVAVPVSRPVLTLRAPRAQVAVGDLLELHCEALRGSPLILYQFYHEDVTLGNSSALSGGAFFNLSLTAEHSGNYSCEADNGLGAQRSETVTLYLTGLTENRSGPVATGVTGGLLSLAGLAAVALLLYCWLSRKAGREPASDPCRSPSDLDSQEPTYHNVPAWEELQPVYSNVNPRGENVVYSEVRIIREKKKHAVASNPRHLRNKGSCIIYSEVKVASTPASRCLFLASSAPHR
Procedure: For additional FACS analysis of FcRH5 antibodies, 1.0 μg, 0.1 μg or 0.01 μg of antibody was titrated per million cells of BJAB cells stably expressing huFcRH5 and SVT2 cells stably expressing cynoFcRH5. Briefly, approximately 10^6 cells in 100 μl were incubated with varying amounts (1.0 ug, 01. ug or 0.01 ug) of murine Ab mu1H4, mu6H1, mu7D11, mu9E2, mu10A8, mu10F5, or mu13G9 per million cells of BJAB cells stably expressing huFcRH5 and SVT2 cells stably expressing cynoFcRH5. Incubation with 1.0 ug/10^6 cells of the appropriate Mu IgG isotype control was used as a negative control. PE conjugated Rat anti-MuIgG1 or Rat anti-MuIgG2a+b was used as the secondary detection antibody.

[5] = system: BJAB-FcRH5 tumors; assay: In vivo tumor cell killing assay, BJAB-FcRH5 xenografts (Example 4); set-up: species or system CB17 ICR SCID mice; conditions: unconjugated antibody, 10.8 mg/kg i.v. day 0 and day 7, 8 mice
Procedure: To test the efficacy of various anti-FcRH5 antibodies, murine anti-human antibodies were conjugated to DM1 and the effect of the conjugated variant on tumors in mice were analyzed.
Specifically, the ability of the antibodies to regress tumors in BJAB-luciferase cells (Burkitt's lymphoma cell line stably transfected with human FcRH5.
After transfection of pRK.CMV.PD.nbe.FcRH5 into BJAB-luciferase cells and puromycin (Calbiochem, San Diego, Calif.) selection, surviving cells were FACS autocloned for mid range expressers with anti-FcRH5 antibodies (7D11). Post autoclone, the BJAB-luciferase cell line expressing FcRH5 most closely resembling plasma cell expression, as determined by FACS, was chosen by FACS analysis using anti-FcRH5 antibodies (7D11). As a negative control, BJAB-luciferase transfected, in the same manner, with the empty vector pRK.CMV.PD.nbe were used.
For analysis of efficacy mouse antibodies, female CB17 ICR SCID mice (6-8 weeks of age from Charles Rivers Laboratories; Hollister, Calif.) were inoculated subcutaneously with 2×10^7 BJAB-FcRH5 cells via injection into the flanks of CB17 ICR SCID mice and the xenograft tumors were allowed to grow to an average of 128 mm^3. Day 0 refers to the day the tumors were an average of 100-250 mm^3 and when the first/or only dose of treatment was administered, unless indicated specifically below. Tumor volume was calculated based on two dimensions, measured using calipers, and was expressed in mm^3 according to the formula: V=0.5a×b^2, where a and b are the long and the short diameters of the tumor, respectively. Data collected from each experimental group were expressed as mean±SE. Groups of 8 mice were treated with a weekly intravenous (i.v.) dose of 400 μg of antibody-linked drug/m^2 mouse (corresponding to ˜8-10 mg ADC/kg of mouse) with anti-FcRH5 ADC or control antibody-drug conjugates at day 0 and day 7. Tumors were measured twice a week throughout the experiment. Body weights of mice were measured either once a week throughout the experiment. […]

[6] = Velcade 1 mg/kg twice weekly for two weeks (Days 0, 3, 7, 10), OPM2-FcRH5 xenograft, CB17 ICR SCID mice
[7] = 37 day time course, ADC 4 mg/kg single IV day 0, Velcade 1 mg/kg IV days 0, 3, 7, 10

## CC(C)C[C@H](NC(=O)[C@H](Cc1ccccc1)NC(=O)c1cnccn1)B(O)O [Velcade ®]
[1]; [6]
  CR (Complete Remission; number of mice with tumor volume dropped to 0 mm^3): 0
  PR (Partial Regression; number of mice with tumor volume below 50% of day 0 volume): 0
  TI (number of observable tumors at end of study): 9/9
[2]; [7]
  CR (mice with Complete Remission: tumor volume dropped to 0 mm^3): 0
  PR (mice with Partial Regression: tumor volume dropped below 50% of day 0): 0
  TI (number of observable tumors at end of study): 8/8

## Nc1cccc2c1CN(C1CCC(=O)NC1=O)C2=O (stereo not drawn) [Revlimid, lenalidomide]
[3]
  CR (mice with Complete Remission: tumor volume dropped to 0 mm^3): 0
  PR (mice with Partial Regression: tumor volume dropped below 50% of day 0): 0
  TI (number of observable tumors at end of study): 4/4
  percent body weight change (FIG. 44): caused a significant decrease in body weight or weight loss

## CC(C)C[C@H](NC(=O)[C@H](Cc1ccccc1)NC(=O)c1cnccn1)B(O)O [Velcade®, bortezomib]
[1]; first 24 days, 1 mg/kg IV twice weekly for two weeks
  percent body weight change: caused a decrease in body weight or weight loss through the duration of treatment, but weight rebounded after dosing was complete
[2]; first 21 days
  percent body weight change (FIG. 42): did not cause a significant decrease in body weight or weight loss

## C[C@@H]1C[C@H]2[C@@H]3CCC4=CC(=O)C=C[C@]4(C)[C@@]3(F)[C@@H](O)C[C@]2(C)[C@@]1(O)C(=O)CO [Dexamethasone]
[3]
  CR (mice with Complete Remission: tumor volume dropped to 0 mm^3): 0
  PR (mice with Partial Regression: tumor volume dropped below 50% of day 0): 0
  TI (number of observable tumors at end of study): 5/5
  percent body weight change (FIG. 44): caused a significant decrease in body weight or weight loss

B1: 7D11: murine monoclonal antibody binding human FcRH5 (antibody, V domains shown)
VH: EVQLVESGGGLVQPGGSLKLSCAASGFTFSSYGMSWVRQTPDKRLELVATITRNGGTTYYLDSVKGRFTISRDNAKNTLYLQMSSLKSEDTAMYYCARGPIYYDYGYAMDYWGQGTTVTVSS
VL: DILLTQSPAILSVSPGERVSFSCRSSQSIGTNIHWYQQRTNGSPRLLIKFASESLSGIPSRFSGSGSGTDFTLSINSVESEDFADYYCQQSNSWPLTFGAGTKVEIK
[4]
  Cyno X-reactivity (FACS) on stable transfected cells: X*
[4]; 1.0, 0.1 or 0.01 μg antibody per million SVT2 cells stably expressing cynoFcRH5
  cross reaction with cynomolgus FcRH5 by FACS analysis: cross react with cynomolgus FcRH5
[5]
  CR (Complete Remission, number of mice): 0
  PR (Partial Regression, number of mice): 0
  TI (number of observable tumors at end of study): 8/8
